According to PMC7450057, “Enhancing intracellular accumulation and target engagement of PROTACs with reversible covalent chemistry” (Nature Communications, 2020):
pIC50, pKd: −log10 of the molar value. “And” between values parts separate entries of the source, which are not always exact repeats. Equal entries are not always repeated. Where two headings read alike, the source gives them in different places.

Legend:
[1] = Permeability by lipid-PAMPA method (Pharmaron); assay type: in vitro ADME; settings: PAMPA
Description: The permeability of compounds was measured using Lipid-PAMPA method by Pharmaron. Preparation of stock solutions: testosterone and methotrexate were used as control compounds in this assay. The stock solutions of positive controls were prepared in DMSO or acetonitrile at the concentration of 10 mM. Prepare a stock solution of compounds in DMSO at the concentration of 10 mM, and further dilute with PBS (pH 7.4). […]
Assay procedures: prepare a 1.8% solution (w/v) of lecithin in dodecane, and sonicate the mixture to ensure a complete dissolution. Carefully pipette 5 μL of the lecithin/dodecane mixture into each acceptor plate well (top compartment), avoiding pipette tip contact with the membrane. Immediately after the application of the artificial membrane (within 10 min), add 300 μL of PBS (pH 7.4) solution to each well of the acceptor plate. Add 300 μL of drug-containing solutions to each well of the donor plate (bottom compartment) in triplicate. Slowly and carefully place the acceptor plate into the donor plate, making sure the underside of the membrane is in contact with the drug-containing solutions in all wells. Replace the plate lid and incubate at 25 °C, 60 rpm for 16 h. After incubation, aliquots of 50 μL from each well of acceptor and donor plate are transferred into a 96-well plate. Add 450 μL of methanol (containing IS: 100 nM Alprazolam, 200 nM Caffeine, 100 nM Tolbutamide) into each well. Cover with plate lid. Vortex at 750 rpm for 100 s. Samples were centrifuged at 3220 × g for 20 min. Determine the compound concentrations by LC/MS/MS. The effective permeability (Pe), in units of centimeter per second, can be calculated using the following equation: LogPe=LogC×−Ln1−drugacceptor/drugequilibrium

[2] = molecular target: truncated Cereblon protein (Homo sapiens, UniProt Q96SW2); assay: CRBN binding assay (fluorescence quenching); settings: for Fluorescence Intensity: Supplementary Figure 11, replicates
truncated Cereblon protein, sequence (Q96SW2 318-426): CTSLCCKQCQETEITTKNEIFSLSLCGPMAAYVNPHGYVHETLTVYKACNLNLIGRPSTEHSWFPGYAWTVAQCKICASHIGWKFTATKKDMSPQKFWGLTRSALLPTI
Description: The Kd values of compounds to CRBN were measured based on fluorescence quenching after compounds binding to CRBN. […] All the compounds were dissolved in DMSO (10 mM) as stock solutions. The final drug concentration is 100 nM. […] Fluorescence intensity values for control wells (assay buffer only) were subtracted from each data point prior to analysis. The Kd was calculated using GraphPad Prism with the following equation curve fit. I=I0−If×Kd/P0+Kd+If

[3] = tested on: MOLM-14 cells; assay: AlamarBlue cell viability assay, MOLM-14; settings: for pIC50: Homo sapiens, MOLM-14, 72 h, read-out: Cell viability IC50, MOLM-14 cells, 72 h, Alamar Blue; for Cell viability, MOML-14: Supplementary Figure 7, replicates
Description: The IC50 was calculated using GraphPad Prism software with a four-parameter dose-response curve fit.

[4] = molecular target: T1, BTK-NanoLuc fusion (Homo sapiens, UniProt Q06187); assay: NanoBRET BTK in-cell target engagement assay; assay type: cell-based; settings: for K′P,D (relative intracellular accumulation coefficient): Kd (BTK)/IC50,TE (BTK)
T1 construct: host or cells: HEK 293T/17
T1 sequence (Q06187 whole entry, the tested form may be a part): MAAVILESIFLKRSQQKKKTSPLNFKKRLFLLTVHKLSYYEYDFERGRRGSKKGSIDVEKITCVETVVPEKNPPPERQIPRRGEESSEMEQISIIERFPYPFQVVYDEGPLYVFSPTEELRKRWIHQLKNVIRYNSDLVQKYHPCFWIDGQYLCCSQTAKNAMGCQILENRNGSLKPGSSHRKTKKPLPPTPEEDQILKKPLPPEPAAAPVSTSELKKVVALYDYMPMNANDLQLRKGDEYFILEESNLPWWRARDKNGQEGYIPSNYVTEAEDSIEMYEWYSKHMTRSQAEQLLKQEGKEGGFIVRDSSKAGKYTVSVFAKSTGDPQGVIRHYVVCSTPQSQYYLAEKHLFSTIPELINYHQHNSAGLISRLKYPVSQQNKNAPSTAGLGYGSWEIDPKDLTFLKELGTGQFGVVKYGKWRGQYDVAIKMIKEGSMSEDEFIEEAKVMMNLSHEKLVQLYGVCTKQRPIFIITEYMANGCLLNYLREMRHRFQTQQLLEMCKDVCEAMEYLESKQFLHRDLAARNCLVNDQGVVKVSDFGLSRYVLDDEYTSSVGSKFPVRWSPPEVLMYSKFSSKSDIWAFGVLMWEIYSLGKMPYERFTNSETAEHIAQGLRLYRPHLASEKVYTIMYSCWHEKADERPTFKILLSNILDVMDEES
How it was run: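 Tracer-displacement IC50 derived from background-corrected BRET ratio (450 nm donor, 610 nm acceptor) in live HEK293/T17 cells transfected with BTK-NanoLuc. Cells were exposed for 2 h at 37 °C to 1.0 µM tracer plus 5-fold serial dilutions of compound from 10 µM.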

[5] = molecular target: BTK (Homo sapiens, UniProt Q06187); assay: In vitro BTK kinase assay (PhosphoSens); assay type: biochemical; set-up: purchased SignalChem B10-10H-10; settings: for pIC50: AssayQuant BTK assay kit, 2.5 nM BTK, 1 mM ATP, duplicates, read-out: BTK inhibition IC50; for activity at 2.56 pM / activity at 12.8 pM / activity at 64 pM / activity at 0.00032 µM / activity at 0.0016 µM / activity at 0.008 µM / activity at 0.2 µM / activity at 1 µM / activity at 0.04 µM: Supplementary Figure 5, replicates, read-out: Inhibition(%); for activity at 2.56 pM: drug concentration 2.56 pM; for activity at 12.8 pM: drug concentration 12.8 pM; for activity at 64 pM: drug concentration 64 pM; for activity at 0.00032 µM: drug concentration 320 pM; for activity at 0.0016 µM: drug concentration 1600 pM; for activity at 0.008 µM: drug concentration 8000 pM; for activity at 0.2 µM: drug concentration 200000 pM; for activity at 1 µM: drug concentration 1000000 pM; for activity at 0.04 µM: drug concentration 40000 pM
BTK, sequence (Q06187 whole entry): as the sequence (Q06187 whole entry, the tested form may be a part) above
Description: BTK kinase activity inhibition IC50 was measured by PhosphoSens® Kinase Assay Kit (Assay Quant Technologies Inc., Cat.# CSKS-AQT0101K). […] Active recombinant BTK was purchased from SignalChem (Cat.# B10-10H-10). All the drugs (3 warhead control and 4 PROTACs) were dissolved in DMSO (10 mM). […] To calculate the IC50, subtract the background fluorescence determined with the “no kinase” control for each time point from the total signal to obtain corrected Relative Fluorescence Units (RFU) values. Plot the corrected RFU vs. Time for each inhibitor concentration and determine the initial reaction rates (slope of the linear portion) for each progress curve for each inhibitor concentration. Then plot velocity (RFU corrected/minute) vs [inhibitor] and determine the IC50 using a 4-parameter logistic fit.

pIC50 [3] | K′P,D (relative intracellular accumulation coefficient) [4] | pIC50 [5] | activity at 2.56 pM [5] [%] | activity at 12.8 pM [5] [%] | activity at 64 pM [5] [%] | activity at 0.00032 µM [5] [%] | activity at 0.0016 µM [5] [%] | activity at 0.008 µM [5] [%] | activity at 0.2 µM [5] [%] | activity at 1 µM [5] [%] | activity at 0.04 µM [5] [%] | Compound | Cell viability, MOML-14 ([3]; drug concentration 1.00E-05 M) | Cell viability, MOML-14 ([3]; drug concentration 1.60E-08 M) | Cell viability, MOML-14 ([3]; drug concentration 2.00E-06 M) | Cell viability, MOML-14 ([3]; drug concentration 3.20E-09 M) | Cell viability, MOML-14 ([3]; drug concentration 4.00E-07 M) | Cell viability, MOML-14 ([3]; drug concentration 6.40E-10 M) | Cell viability, MOML-14 ([3]; drug concentration 8.00E-08 M) | also measured
5.57 | 2.3 × 10^−2 | 9.10 | 86.2 | 77.7 | 78.1 | 65.7 | 28 | 4.02 | 0.667 | 2.16 |  | CN(CC=CC(=O)N1CCCC(n2nc(-c3ccc(Oc4ccccc4)cc3)c3c(N)ncnc32)C1)CCCNC(=O)CNc1cccc2c1C(=O)N(C1CCC(=O)NC1=O)C2=O (stereo not shown) [IRC-1] | 18.0378 and 23.8364 and 27.2416 and 22.4354 and 21.8906 | 95.6375 and 84.8576 and 100.21 and 79.6428 and 95.3845 | 77.6385 and 69.5439 and 88.1655 and 70.6919 and 85.8499 | 83.1063 and 84.2544 and 98.5173 and 96.2017 and 79.9735 | 95.365 and 106.398 and 86.1807 and 91.7653 and 81.4134 | 91.6096 and 88.3017 and 105.931 and 90.734 and 74.6225 | 76.0624 and 92.5825 and 94.7813 and 82.8144 and 77.7553 | recovery at 16 h, 10 μM ([1]; Recovery%): 17.4%; Papp at 16 h, 10 μM ([1]; pH 7.4): < 0.0245 ×10⁻⁶ cm/s; Fluorescence Intensity ([2]; CRBN 0 μM): 2824.6 and 2800.6 and 2664.6; Fluorescence Intensity ([2]; CRBN 0.734375 μM): 1780.6 and 1887.6 and 2192.6; Fluorescence Intensity ([2]; CRBN 1.46875 μM): 1780.6 and 1687.6 and 2021.6; Fluorescence Intensity ([2]; CRBN 2.9375 μM): 1637.6 and 1410.6 and 1592.6; Fluorescence Intensity ([2]; CRBN 5.875 μM): 1188.6 and 1223.6 and 1189.6; Fluorescence Intensity ([2]; CRBN 11.75 μM): 912.6 and 875.6 and 944.6; Fluorescence Intensity ([2]; CRBN 23.5 μM): 936.6 and 917.6 and 925.6; pKd ([2]; truncated Cereblon protein, fluorescence quenching, triplicates, read-out: Kd): 5.82; NanoBRET(%) ([4]; Figure 3c, 1.00E-05 M, triplicates): 10.4557% and 9.057% and 9.053%; NanoBRET(%) ([4]; Figure 3c, 1.60E-08 M, triplicates): 96.913% and 93.9025% and 100.93%; NanoBRET(%) ([4]; Figure 3c, 2.00E-06 M, triplicates): 7.89% and 9.51% and 9.23%; NanoBRET(%) ([4]; Figure 3c, 3.20E-09 M, triplicates): 94.8058% and 107.984% and 103.91%; NanoBRET(%) ([4]; Figure 3c, 4.00E-07 M, triplicates): 11.1403% and 9.255% and 17.6554%; NanoBRET(%) ([4]; Figure 3c, 8.00E-08 M, triplicates): 65.3589% and 58.7338% and 70.2106%; pIC50 ([4]; HEK-293 cells, BTK tracer 1.0 µM, Table 1 / Fig. 3c, triplicates, read-out: BTK TE IC50,TE): 6.89; BTK engagement ([4]; at 400 nM): ~ 100%; intracellular accumulation of RC-1 relative to the compound ([4]; from K′P,D values, BTK (Table 1)): 6 folds; diminished BTK inhibitory activity compared with corresponding warhead control ([5]; ratio of IC50 values): < 3 fold
6.68 |  | 8.17 | 108 | 101 | 109 | 106 | 88.3 | 48.8 | 3.98 | 1.27 | 10.5 | CN1C(=O)CCC(N2C(=O)c3cccc(NCC(=O)NCCCN(C)C(C)(C)C=C(C#N)C(=O)N4CCCC(n5nc(-c6ccc(Oc7ccccc7)cc6)c6c(N)ncnc65)C4)c3C2=O)C1=O (stereo not shown) [RC-1-Me] | 5.925 and 2.684 and 5.158 and 0.5402 and 1.464 | 108.445 and 78.2274 and 85.8427 and 61.7071 and 70.0718 | 12.3031 and 8.922 and 10.0028 and 5.594 and 8.609 | 105.5 and 93.5975 and 67.3881 and 77.0075 and 77.9834 | 48.707 and 38.2511 and 45.3611 and 24.9024 and 42.2243 | 105.5 and 122.177 and 88.0908 and 73.4874 and 67.8761 | 81.0853 and 58.6749 and 68.6428 and 51.3383 and 65.994 | 
6.30 | 1.5 × 10^−1 | 8.66 | 108 | 105 | 109 | 96.8 | 64.1 | 25.5 | 1.89 | 2.91 | 4.68 | CC(C)(C)C=C(C#N)C(=O)N1CCCC(n2nc(-c3ccc(Oc4ccccc4)cc3)c3c(N)ncnc32)C1 (stereo not shown) [RC-Ctrl] | 7.067 and 3.271 and 5.661 and 1.305 and 2.339 | 100.163 and 86.7229 and 69.3512 and 65.5718 and 65.0973 | 19.6597 and 13.6262 and 19.5071 and 12.6093 and 12.5585 | 99.2136 and 96.6714 and 77.7744 and 79.5709 and 66.0125 | 73.5374 and 63.2161 and 57.9961 and 48.3526 and 44.7427 | 106.654 and 105.722 and 82.8418 and 81.5368 and 73.0798 | 93.8411 and 82.0283 and 73.1815 and 65.3176 and 60.962 | NanoBRET(%) ([4]; Figure 3d, 1.00E-05 M, triplicates): 3.378% and 4.061% and 7.763%; NanoBRET(%) ([4]; Figure 3d, 1.60E-08 M, triplicates): 68.6994% and 58.5265% and 79.8426%; NanoBRET(%) ([4]; Figure 3d, 2.00E-06 M, triplicates): 7.973% and 4.415% and 10.8959%; NanoBRET(%) ([4]; Figure 3d, 3.20E-09 M, triplicates): 72.0977% and 81.5236% and 73.9704%; NanoBRET(%) ([4]; Figure 3d, 8.00E-08 M, triplicates): 48.5638% and 40.5056% and 47.7559%; pIC50 ([4]; experiment of Fig. 3d, read-out: BTK target engagement IC50): 7.33; reduction of BTK inhibition activity compared with IRC-Ctrl ([5]; ratio of IC50 values): 7 folds
